# Assay results reported in ChEMBL document CHEMBL1148514, “Development of lipopeptides for inhibiting 20S proteasomes” (Bioorg Med Chem Lett, 2006).
# Residues, ends and D or L forms follow the SMILES beside them.
# Experiments:
# [1] = biological target: T1, Proteasome Macropain subunit PRE2 (Saccharomyces cerevisiae S288c) (UniProt P30656); assay: Inhibition of chymotrypsin like activity of yeast 20S proteasome at 80 uM
# T1 sequence (whole entry): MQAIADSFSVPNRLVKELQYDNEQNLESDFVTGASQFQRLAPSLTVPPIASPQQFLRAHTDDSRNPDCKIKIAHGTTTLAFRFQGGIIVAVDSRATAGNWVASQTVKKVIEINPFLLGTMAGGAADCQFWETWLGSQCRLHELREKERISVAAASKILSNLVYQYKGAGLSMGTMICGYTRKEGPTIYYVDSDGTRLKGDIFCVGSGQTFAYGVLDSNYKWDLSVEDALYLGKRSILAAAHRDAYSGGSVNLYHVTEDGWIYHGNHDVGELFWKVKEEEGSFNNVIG
# [2] = biological target: T2, Proteasome Macropain subunit (Saccharomyces cerevisiae S288c) (UniProt P22141); assay: Inhibition of trypsin like activity of yeast 20S proteasome at 80 uM
# T2 sequence (whole entry): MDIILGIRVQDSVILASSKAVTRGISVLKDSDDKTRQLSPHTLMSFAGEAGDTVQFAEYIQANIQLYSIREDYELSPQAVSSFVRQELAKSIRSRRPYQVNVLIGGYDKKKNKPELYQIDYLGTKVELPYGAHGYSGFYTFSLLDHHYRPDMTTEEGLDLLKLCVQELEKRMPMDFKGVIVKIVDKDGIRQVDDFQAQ
# [3] = biological target: T3, Proteasome component C5 (Saccharomyces cerevisiae S288c) (UniProt P23724); assay: Inhibition of post acid activity of yeast 20S proteasome at 80 uM
# T3 sequence (whole entry): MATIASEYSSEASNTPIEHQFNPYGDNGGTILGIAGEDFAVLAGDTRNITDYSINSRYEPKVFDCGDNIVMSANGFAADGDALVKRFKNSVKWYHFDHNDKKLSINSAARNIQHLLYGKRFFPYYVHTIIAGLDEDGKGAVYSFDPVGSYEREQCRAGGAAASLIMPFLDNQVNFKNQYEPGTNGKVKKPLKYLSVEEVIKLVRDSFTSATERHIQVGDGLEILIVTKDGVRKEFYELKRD
# [4] = biological target: T4, Proteasome Macropain subunit PRE2 (Saccharomyces cerevisiae S288c, UniProt P30656); assay: Inhibition of chymotrypsin like activity of yeast 20S proteasome
# T4 sequence (P30656 whole entry): T1 sequence (whole entry)
# [5] = biological target: T5, Proteasome Macropain subunit (Saccharomyces cerevisiae S288c, UniProt P22141); assay: Inhibition of trypsin like activity of yeast 20S proteasome
# T5 sequence (P22141 whole entry): T2 sequence (whole entry)
# [6] = biological target: T2, Proteasome Macropain subunit (Saccharomyces cerevisiae S288c); assay: Activation of trypsin like activity of yeast 20S proteasome
# [7] = biological target: T3, Proteasome component C5 (Saccharomyces cerevisiae S288c); assay: Activation of post acid activity of yeast 20S proteasome
# [8] = biological target: T6, Proteasome component C5 (Saccharomyces cerevisiae S288c, UniProt P23724); assay: Inhibition of post acid activity of yeast 20S proteasome
# T6 sequence (P23724 whole entry): T3 sequence (whole entry)
SMILES,inhibition [1],Ki [5],Ki [8],inhibition [2],inhibition [3],Ki [4],Activity [6],Activity [7]
N[C@@H](Cc1ccc(O)cc1)C(=O)N[C@@H](CCC(=O)O)C(=O)N[C@@H](CC(=O)O)C(=O)O (H-Tyr-Glu-Asp-OH),< 10%,,,< 10%,< 10%,,,
CC(C)C[C@H](NC(=O)[C@H](CCC(=O)O)NC(=O)[C@@H](N)Cc1ccc(O)cc1)C(=O)O (H-Tyr-Glu-Leu-OH),< 10%,,,< 10%,< 10%,,,
CCCCCC(=O)N[C@H](C(=O)N[C@H](C(=O)N[C@H](C(=O)N[C@@H](Cc1ccc(O)cc1)C(=O)N[C@@H](CCCCN)C(=O)N[C@@H](Cc1ccccc1)C(=O)O)[C@@H](C)O)C(C)C)[C@@H](C)O (HELM PEPTIDE1{[CCCCCC(=O)[*:2]].T.V.T.Y.K.F}$$$$V2.0),,315 µM,,,< 10%,80 µM,,
CCCCCCCC(=O)N[C@H](C(=O)N[C@H](C(=O)N[C@H](C(=O)N[C@@H](Cc1ccc(O)cc1)C(=O)N[C@@H](CCCCN)C(=O)N[C@@H](Cc1ccccc1)C(=O)O)[C@@H](C)O)C(C)C)[C@@H](C)O (HELM PEPTIDE1{[CCCCCCCC(=O)[*:2]].T.V.T.Y.K.F}$$$$V2.0),,,,,,20 µM,1.2,1.3
CCCCCCCC(=O)N[C@@H](Cc1ccc(O)cc1)C(=O)N[C@@H](CCC(=O)O)C(=O)N[C@@H](CC(C)C)C(=O)O (HELM PEPTIDE1{[CCCCCCCC(=O)[*:2]].Y.E.L}$$$$V2.0),,,,,< 10%,> 80 µM,1.9,
CCCCCCCCCC(=O)N[C@H](C(=O)N[C@H](C(=O)N[C@H](C(=O)N[C@@H](Cc1ccc(O)cc1)C(=O)N[C@@H](CCCCN)C(=O)N[C@@H](Cc1ccccc1)C(=O)O)[C@@H](C)O)C(C)C)[C@@H](C)O (HELM PEPTIDE1{[CCCCCCCCCC(=O)[*:2]].T.V.T.Y.K.F}$$$$V2.0),,,,< 10%,,72 µM,,1.2
CCCCCCCCCCCC(=O)N[C@H](C(=O)N[C@H](C(=O)N[C@H](C(=O)N[C@@H](Cc1ccccc1)C(=O)N[C@@H](CC(=O)O)C(=O)N[C@@H](Cc1ccc(O)cc1)C(=O)O)[C@@H](C)O)[C@@H](C)CC)[C@@H](C)O (HELM PEPTIDE1{[CCCCCCCCCCCC(=O)[*:2]].T.I.T.F.D.Y}$$$$V2.0),,> 80 µM,> 80 µM,,,> 80 µM,,
CCCCCCCCCCCC(=O)N[C@H](C(=O)N[C@H](C(=O)N[C@H](C(=O)N[C@@H](Cc1ccc(O)cc1)C(=O)N[C@@H](CCCCN)C(=O)N[C@@H](Cc1ccccc1)C(=O)O)[C@@H](C)O)C(C)C)[C@@H](C)O (HELM PEPTIDE1{[CCCCCCCCCCCC(=O)[*:2]].T.V.T.Y.K.F}$$$$V2.0),,68 µM,,,,> 80 µM,,1.2
CCCCCCCCCCCCCC(=O)N[C@H](C(=O)N[C@H](C(=O)N[C@H](C(=O)N[C@@H](Cc1ccccc1)C(=O)N[C@@H](CC(=O)O)C(=O)N[C@@H](Cc1ccc(O)cc1)C(=O)O)[C@@H](C)O)[C@@H](C)CC)[C@@H](C)O (HELM PEPTIDE1{[CCCCCCCCCCCCCC(=O)[*:2]].T.I.T.F.D.Y}$$$$V2.0),< 10%,78 µM,,,,,,1.3

# Now from value to compound, other results behind:
inhibition [1],Ki [5],Ki [8],SMILES,inhibition [2],inhibition [3],Ki [4],Activity [6],Activity [7]
< 10%,,,CCCCCCCCCCCCCCC(N)C(=O)O (centres undefined),< 10%,< 10%,,,
< 10%,,,CCCCCCCCCCCCCCCC(=O)OC,< 10%,< 10%,,,
< 10%,,72 µM,CCCCCCCCCC(=O)N[C@@H](Cc1ccc(O)cc1)C(=O)N[C@@H](CCC(=O)O)C(=O)N[C@@H](CC(C)C)C(=O)O (HELM PEPTIDE1{[CCCCCCCCCC(=O)[*:2]].Y.E.L}$$$$V2.0),< 10%,,,,
< 10%,> 80 µM,62 µM,CCCCCCCCCCCC(=O)N[C@@H](Cc1ccc(O)cc1)C(=O)N[C@@H](CCC(=O)O)C(=O)N[C@@H](CC(C)C)C(=O)O (HELM PEPTIDE1{[CCCCCCCCCCCC(=O)[*:2]].Y.E.L}$$$$V2.0),,,,,
